Laboratory results: US11802120B2, “Fused cyclic urea derivatives as CRHR2 antagonist” (RaQualia Pharma Inc., priority 2018, dated 2023)
pIC50: −log10 of the molar value.

Target: T1, human CRHR2-alpha (Homo sapiens, UniProt Q13324)
T1 sequence (Q13324 1-411): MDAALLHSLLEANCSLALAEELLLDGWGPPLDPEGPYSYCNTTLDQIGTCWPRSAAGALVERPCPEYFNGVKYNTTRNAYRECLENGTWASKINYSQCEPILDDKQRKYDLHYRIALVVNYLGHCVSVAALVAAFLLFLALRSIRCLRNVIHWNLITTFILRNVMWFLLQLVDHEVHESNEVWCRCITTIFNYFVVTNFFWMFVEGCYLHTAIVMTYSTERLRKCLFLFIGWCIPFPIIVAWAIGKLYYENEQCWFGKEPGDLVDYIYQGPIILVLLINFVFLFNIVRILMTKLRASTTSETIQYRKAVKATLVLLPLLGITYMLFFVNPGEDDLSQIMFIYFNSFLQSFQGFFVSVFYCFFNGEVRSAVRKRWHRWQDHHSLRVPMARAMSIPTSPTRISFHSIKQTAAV
Test: cAMP functional assay for human CRHR2 (LANCE Ultra cAMP, TR-FRET)
Type: cell-based
Settings: CHO-K1 cells expressing human CRHR2-alpha, agonist human urocortin2 at EC80, cAMP; read-out: IC50 against CRHR2
Method in brief: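 CHO-K1 stable lines; 4,000 cells/well; compound 30 min, 25° C; EC80 agonist (human urocortin2 → CRHR2, CRF → CRHR1) 30 min, 25° C; buffer HBSS/0.1% BSA/0.5 mM IBMX/5 mM Hepes pH 7.4; Eu-cAMP tracer + ULight antibody 60 min; TR-FRET read; IC50 from % inhibition curves.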

pIC50, > 6.52:
CNC(=O)c1ccc(-n2c(=O)n(C[C@H]3CC[C@H](NC(=O)c4cc(C(F)(F)F)ccc4Cl)CC3)c3ccccc32)cn1 [Example 490, 5-(3-(((1r,4r)-4-(2-chloro-5-(trifluoromethyl)benza-mido)cyclohexyl)methyl)-2-oxo-2,3-dihydro-1H-benzo[d]imidazol-1-yl)-N-methylpicolinamide]
Cc1ncc(Cl)cc1C(=O)N[C@H]1CC[C@H](Cn2c(=O)n(-c3ccc(C(=O)NCc4cocn4)nc3)c3ccccc32)CC1 [Example 179, 5-(3-(((1r,4r)-(5-chloro-2-methylnicotinamido)cyclo-hexyl)methyl)-2-oxo-2,3-dihydro-1H-benzo[d]imidazol-1-yl)-N-(oxazol-4-ylmethyl) picolinamide]
COc1ccc(F)c(-n2c(=O)n(C[C@H]3CC[C@H](NC(=O)c4cc(Cl)cnc4C(F)F)CC3)c3ncccc32)c1 [Example 720, 5-chloro-2-(difluoromethyl)-N-((1r,4r)-4-((1-(2-fluoro-5-methoxyphenyl)-2-oxo-1H-imidazo[4,5-b]pyridin-3(2H)-yl)methyl)cyclohexyl) nicotinamide]
O=C(N[C@H]1CC[C@H](Cn2c(=O)n(-c3ccc(N4CCOCC4)nc3)c3ccccc32)CC1)c1cc(Cl)cnc1C(F)F [Example 383, 5-chloro-2-(difluoromethyl)-N-((1r,4r)-4-((3-(6-morpholino-pyridin-3-yl)-2-oxo-2,3-dihydro-1H-benzo[d]imidazol-1-yl)methyl)cyclohexyl) nicotinamide]
C[C@@H](O)COc1ccc(-n2c(=O)n(C[C@H]3CC[C@H](NC(=O)c4cc(Cl)cnc4C(F)(F)F)CC3)c3ccccc32)cn1 [Example 466, 5-chloro-N-((1R,4r)-4-((3-(6-((R)-2-hydroxypropoxy)pyridin-3-yl)-2-oxo-2,3-dihydro-1H-benzo[d]imidazol-1-yl)methyl)cyclohexyl)-2-(trifluoromethyl)nicotinamide]
Cc1ncc(Cl)cc1C(=O)N[C@H]1CC[C@H](Cn2c(=O)n(CC(=O)c3ccccc3)c3ccccc32)CC1 [Example 5, 5-chloro-2-methyl-N-((1r,4r)-4-((2-oxo-3-(2-oxo-2-phenylethyl)-2,3-dihydro-1H-benzo[d]imidazol-1-yl)methyl)cyclohexyl)nicotinamide]
COc1ccc(-n2c(=O)n(C[C@H]3CC[C@H](NC(=O)c4cc(Cl)cnc4C)CC3)c3cccnc32)cc1 [Example 190, 5-chloro-N-((1r,4r)-4-((3-(4-methoxyphenyl)-2-oxo-2,3-dihydro-1H-imidazo [4,5-b]pyridin-1-yl)methyl)cyclohexyl)-2-methylnico-tinamide]
CC(=O)N1Cc2ccc(-n3c(=O)n(C[C@H]4CC[C@H](NC(=O)c5cc(Cl)cnc5C)CC4)c4ccccc43)cc2C1 [Example 188, N-((1r,4r)-4-((3-(2-acetylisoindolin-5-yl)-2-oxo-2,3-dihydro-1H-benzo[d]imidazol-1-yl)methyl)cyclohexyl)-5-chloro-2-methylnicotinamide]
CN(C)c1cc(-n2c(=O)n(C[C@H]3CC[C@H](NC(=O)c4cc(Cl)cnc4C(F)F)CC3)c3ccccc32)ccn1 [Example 650, 5-chloro-2-(difluoromethyl)-N-((1r,4r)-4-((3-(2-(dimethyl-amino)pyridin-4-yl)-2-oxo-2,3-dihydro-1H-benzo[d]imidazol-1-yl)methyl)cyclo-hexyl)nicotinamide]
CNC(=O)c1cc(C)c(-n2c(=O)n(C[C@H]3CC[C@H](NC(=O)c4cc(Cl)cnc4C(F)(F)F)CC3)c3ccccc32)cn1 [Example 313, 5-(3-(((1r,4r)-4-(5-chloro-2-(trifluoromethyl)nico-tinamido)cyclohexyl)methyl)-2-oxo-2,3-dihydro-1H-benzo[d]imidazol-1-yl)-N,4-dimethylpicolinamide]
CNc1ccc(-n2c(=O)n(C[C@H]3CC[C@H](NC(=O)c4cc(Cl)cnc4C)CC3)c3ccc(F)cc32)cn1 [Example 625, 5-chloro-N-((1r,4r)-4-((5-fluoro-3-(6-(methylamino)pyridin-3-yl)-2-oxo-2,3-dihydro-1H-benzo[d]imidazol-1-yl)methyl)cyclohexyl)-2-methylnicotinamide]
Cc1ccc(-n2c(=O)n(C[C@H]3CC[C@H](NC(=O)c4cc(Cl)cnc4C(F)F)CC3)c3ccccc32)c(C)n1 [Example 376, 5-chloro-2-(difluoromethyl)-N-((1r,4r)-4-((3-(2,6-dimethyl-pyridin-3-yl)-2-oxo-2,3-dihydro-1H-benzo[d]imidazol-1-yl)methyl)cyclohexyl) nicotinamide]
CNC(=O)c1noc2cc(-n3c(=O)n(C[C@H]4CC[C@H](NC(=O)c5cc(Cl)cnc5C)CC4)c4ccccc43)ccc12 [Example 244, 6-(3-(((1r,4r)-4-(5-chloro-2-methylnicotinamido)cyclohexyl)methyl)-2-oxo-2,3-dihydro-1H-benzo[d]imidazol-1-yl)-N-methylbenzo[d]isoxazole-3-carboxamide]
CNC(=O)c1ccc(-n2c(=O)n(C[C@H]3CC[C@H](NC(=O)c4c5ccccc5nn4CC(F)(F)F)CC3)c3ccccc32)cn1 [Example 557, N-((1r,4r)-4-((3-(6-(methylcarbamoyl)pyridin-3-yl)-2-oxo-2,3-dihydro-1H-benzo[d]imidazol-1-yl)methyl)cyclohexyl)-2-(2,2,2-trifluoroethyl)-2H-indazole-3-carboxamide]
Cc1ncc(Cl)cc1C(=O)N[C@H]1CC[C@H](Cn2c(=O)n(-c3cccc4c3CCC4)c3ccncc32)CC1 [Example 238, 5-chloro-N-((1r,4r)-4-((1-(2,3-dihydro-1H-inden-4-yl)-2-oxo-1H-imidazo[4,5-c]pyridin-3(2H)-yl)methyl)cyclohexyl)-2-methylnicotinamide]
Cc1ncc(Cl)cc1C(=O)N[C@H]1CC[C@H](Cn2c(=O)n(-c3ccc(-c4cnn(C)c4)nc3)c3ccccc32)CC1 [Example 214, 5-chloro-2-methyl-N-((1r,4r)-4-((3-(6-(1-methyl-1H-pyrazol-4-yl)pyridin-3-yl)-2-oxo-2,3-dihydro-1H-benzo[d]imidazol-1-yl)methyl)cyclohexyl)nico-tinamide]
Cc1ncc(Cl)cc1C(=O)N[C@H]1CC[C@H](Cn2c(=O)n(-c3ccc(NC4COC4)nc3)c3ccccc32)CC1 [Example 147, 5-chloro-2-methyl-N-((1r,4r)-4-((3-(6-(oxetan-3-ylamino)pyridin-3-yl)-2-oxo-2,3-dihydro-1H-benzo[d]imidazol-1-yl)methyl)cyclo-hexyl)nicotinamide]
O=C(N[C@H]1CC[C@H](Cn2c(=O)n(-c3ccc4cnccc4c3)c3ccccc32)CC1)c1cc(Cl)cnc1C(F)(F)F [Example 398, 5-chloro-N-((1r,4r)-4-((3-(isoquinolin-6-yl)-2-oxo-2,3-dihydro-1H-benzo[d]imidazol-1-yl)methyl)cyclohexyl)-2-(trifluoromethyl)nicotinamide]
CCOc1ccc(-n2c(=O)n(C[C@H]3CC[C@H](NC(=O)c4cc(Cl)cnc4C)CC3)c3cccnc32)cc1 [Example 402, 5-chloro-N-((1r,4r)-4-((3-(4-ethoxyphenyl)-2-oxo-2,3-dihydro-1H-imidazo[4,5-b]pyridin-1-yl)methyl)cyclo-hexyl)-2-methylnicotinamide]
O=C(N[C@H]1CC[C@H](Cn2c(=O)n(-c3cncc4ccccc34)c3ccccc32)CC1)c1cc(Cl)cnc1C(F)(F)F [Example 354, 5-chloro-N-((1r,4r)-4-((3-(isoquinolin-4-yl)-2-oxo-2,3-dihydro-1H-benzo[d]imidazol-1-yl)methyl)cyclo-hexyl)-2-(trifluoromethyl) nicotinamide]
Cc1ccc(-n2c(=O)n(C[C@H]3CC[C@H](NC(=O)c4cc(Cl)cnc4C)CC3)c3c(F)cccc32)cn1 [Example 124, 5-chloro-N-((1r,4r)-4-((7-fluoro-3-(6-methylpyridin-3-yl)-2-oxo-2,3-dihydro-1H-benzo[d]imidazol-1-yl)methyl)cyclo-hexyl)-2-methylnicotinamide]
Cc1ncc(Cl)cc1C(=O)N[C@H]1CC[C@H](Cn2c(=O)n(-c3cccc4c3cnn4C)c3ccccc32)CC1 [Example 347, 5-chloro-2-methyl-N-((1r,4r)-4-((3-(1-methyl-1H-indazol-4-yl)-2-oxo-2,3-dihydro-1H-benzo[d]imidazol-1-yl)methyl)cyclohexyl)nicotinamide]
CNc1ncc(-n2c(=O)n(C[C@H]3CC[C@H](NC(=O)c4cc(Cl)cnc4C)CC3)c3ccccc32)cc1F [Example 552, 5-chloro-N-((1r,4r)-4-((3-(5-fluoro-6-(methylamino)pyridin-3-yl)-2-oxo-2,3-dihydro-1H-benzo[d]imidazol-1-yl)methyl)cyclohexyl)-2-methylnicotinamide]
